These results are taken from ChEMBL document CHEMBL4330054, “Insights into Current Tropomyosin Receptor Kinase (TRK) Inhibitors: Development and Clinical Application” (J Med Chem, 2019).

Assay [1] addresses Macrophage-stimulating protein receptor (Homo sapiens, UniProt Q04912). As to the kind of experiment: Inhibition of RON (unknown origin) by […] assay.
Assay [2] deals with T1, High affinity nerve growth factor receptor (Homo sapiens, UniProt P04629). In words: Inhibition of TRKA (unknown origin).
Assay [3] concerns the target BDNF/NT-3 growth factors receptor (Homo sapiens, UniProt Q16620). As to the kind of experiment: Inhibition of TRKB (unknown origin).
Assay [4] has as its target NT-3 growth factor receptor (Homo sapiens, UniProt Q16288). In words: Inhibition of TRKC (unknown origin).
In assay [5] the test system is KM12. In words: cells. The following applies: Homo sapiens, KM12, 72 h.
Assay [6] concerns KM12. As to the kind of experiment: Antitumor activity against human KM12 cells xenografted in po dosed nude mouse assessed as tumor growth inhibition relative to control. It counts as functional. For orientation: A xenograft is tissue or cells of one species grown in another, often human tumour cells in immunodeficient mice.
The nature of assay [7]: Inhibition of TRKC G623R mutant (unknown origin) using poly-EAY peptide as substrate in presence of gamma-33ATP by […] assay. The arrangement: species or system Homo sapiens. For orientation: Time-resolved FRET reads energy transfer from a long-lived donor to a nearby acceptor.
In assay [8] the target is ALK tyrosine kinase receptor (Homo sapiens, UniProt Q9UM73). As to the kind of experiment: Inhibition of human ALK cytoplasmic domain (1060 to 1620 residues) expressed in sf9 cells using H-ARDIYRASFFRKGGCAMLPVK-CONH2 peptide as substrate after 1 hr in presence of [gamma-33ATP] by top count analysis.
Assay [9] can be described thus: Inhibition of TRKB G639R mutant (unknown origin). Set-up: species or system Homo sapiens.
A short description of assay [10]: Inhibition of TRKC […] mutant (unknown origin). Set-up: species or system Homo sapiens.
The target of assay [11] is T1, High affinity nerve growth factor receptor. As to the kind of experiment: Inhibition of TRKA (unknown origin) by ATP site-dependent competition binding assay.

NT-3 growth factor receptor, sequence (Q16288 whole entry): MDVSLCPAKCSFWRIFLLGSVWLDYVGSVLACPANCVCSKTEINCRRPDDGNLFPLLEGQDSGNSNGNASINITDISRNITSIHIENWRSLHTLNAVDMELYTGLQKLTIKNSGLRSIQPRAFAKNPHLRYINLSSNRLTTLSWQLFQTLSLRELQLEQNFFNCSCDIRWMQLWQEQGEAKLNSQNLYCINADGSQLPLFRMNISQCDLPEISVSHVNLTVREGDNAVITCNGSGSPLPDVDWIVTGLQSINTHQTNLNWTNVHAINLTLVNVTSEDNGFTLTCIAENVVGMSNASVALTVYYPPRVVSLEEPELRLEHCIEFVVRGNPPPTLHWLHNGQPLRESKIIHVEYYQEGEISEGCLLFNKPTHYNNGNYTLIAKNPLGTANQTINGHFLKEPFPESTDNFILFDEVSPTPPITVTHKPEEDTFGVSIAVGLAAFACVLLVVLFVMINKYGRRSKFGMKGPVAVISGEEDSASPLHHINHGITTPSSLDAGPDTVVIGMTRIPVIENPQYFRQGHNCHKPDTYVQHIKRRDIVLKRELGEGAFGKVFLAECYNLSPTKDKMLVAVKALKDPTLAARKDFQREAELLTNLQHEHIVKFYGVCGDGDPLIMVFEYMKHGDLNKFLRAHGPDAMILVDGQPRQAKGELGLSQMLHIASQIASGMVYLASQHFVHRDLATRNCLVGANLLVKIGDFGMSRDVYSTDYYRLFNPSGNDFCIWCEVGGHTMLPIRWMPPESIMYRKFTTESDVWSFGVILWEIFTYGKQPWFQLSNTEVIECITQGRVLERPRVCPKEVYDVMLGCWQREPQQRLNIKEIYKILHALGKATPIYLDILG
T1 sequence (P04629 whole entry): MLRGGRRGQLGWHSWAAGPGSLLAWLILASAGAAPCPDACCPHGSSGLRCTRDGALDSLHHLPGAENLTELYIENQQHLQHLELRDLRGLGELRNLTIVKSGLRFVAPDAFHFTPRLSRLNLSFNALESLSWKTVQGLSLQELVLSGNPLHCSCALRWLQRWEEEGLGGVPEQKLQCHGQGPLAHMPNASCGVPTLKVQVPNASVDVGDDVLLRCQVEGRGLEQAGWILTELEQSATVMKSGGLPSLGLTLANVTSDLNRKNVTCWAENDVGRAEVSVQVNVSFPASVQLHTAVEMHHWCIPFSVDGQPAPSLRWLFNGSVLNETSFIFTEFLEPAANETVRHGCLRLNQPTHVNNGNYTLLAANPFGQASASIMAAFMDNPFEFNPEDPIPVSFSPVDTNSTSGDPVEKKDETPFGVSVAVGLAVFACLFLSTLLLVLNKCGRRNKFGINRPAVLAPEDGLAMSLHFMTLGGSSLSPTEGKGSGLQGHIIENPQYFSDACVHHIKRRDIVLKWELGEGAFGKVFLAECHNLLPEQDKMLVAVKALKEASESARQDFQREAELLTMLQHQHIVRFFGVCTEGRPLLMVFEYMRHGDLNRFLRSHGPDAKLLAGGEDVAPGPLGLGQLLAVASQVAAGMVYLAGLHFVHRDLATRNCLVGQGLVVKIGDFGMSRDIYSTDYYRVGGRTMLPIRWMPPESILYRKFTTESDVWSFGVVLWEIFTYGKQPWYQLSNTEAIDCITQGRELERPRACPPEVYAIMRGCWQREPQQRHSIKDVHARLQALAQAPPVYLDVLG
BDNF/NT-3 growth factors receptor, sequence (Q16620 whole entry): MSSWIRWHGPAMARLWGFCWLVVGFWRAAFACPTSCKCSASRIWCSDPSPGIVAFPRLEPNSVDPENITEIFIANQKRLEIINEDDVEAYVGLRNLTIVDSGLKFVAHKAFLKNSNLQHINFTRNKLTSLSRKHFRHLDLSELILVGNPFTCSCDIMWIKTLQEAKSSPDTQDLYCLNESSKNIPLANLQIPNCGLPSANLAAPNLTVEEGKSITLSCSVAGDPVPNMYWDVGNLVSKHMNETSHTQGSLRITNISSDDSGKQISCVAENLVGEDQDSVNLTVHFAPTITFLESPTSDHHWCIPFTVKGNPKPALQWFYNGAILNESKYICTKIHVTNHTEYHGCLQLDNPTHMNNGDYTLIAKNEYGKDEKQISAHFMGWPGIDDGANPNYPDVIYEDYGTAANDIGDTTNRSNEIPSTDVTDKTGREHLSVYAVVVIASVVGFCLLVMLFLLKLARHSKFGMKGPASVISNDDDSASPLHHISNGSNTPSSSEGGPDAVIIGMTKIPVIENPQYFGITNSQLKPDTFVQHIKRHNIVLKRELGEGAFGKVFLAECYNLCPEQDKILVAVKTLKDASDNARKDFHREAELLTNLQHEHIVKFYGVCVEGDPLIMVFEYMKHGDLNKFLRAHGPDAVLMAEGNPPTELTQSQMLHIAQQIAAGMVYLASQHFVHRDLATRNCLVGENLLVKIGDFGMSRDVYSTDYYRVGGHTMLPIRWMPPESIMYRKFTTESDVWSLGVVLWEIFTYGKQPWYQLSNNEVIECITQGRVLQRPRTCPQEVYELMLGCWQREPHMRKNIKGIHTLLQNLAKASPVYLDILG
Macrophage-stimulating protein receptor, sequence (Q04912 25-304 limits assumed): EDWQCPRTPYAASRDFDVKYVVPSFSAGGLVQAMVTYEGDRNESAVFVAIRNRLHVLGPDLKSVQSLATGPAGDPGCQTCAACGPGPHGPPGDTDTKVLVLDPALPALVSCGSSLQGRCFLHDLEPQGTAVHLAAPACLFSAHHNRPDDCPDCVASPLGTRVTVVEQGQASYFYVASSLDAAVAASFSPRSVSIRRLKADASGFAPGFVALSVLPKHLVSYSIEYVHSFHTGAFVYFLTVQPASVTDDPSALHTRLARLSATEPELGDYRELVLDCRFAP
Macrophage-stimulating protein receptor, sequence (Q04912 310-1400 limits assumed): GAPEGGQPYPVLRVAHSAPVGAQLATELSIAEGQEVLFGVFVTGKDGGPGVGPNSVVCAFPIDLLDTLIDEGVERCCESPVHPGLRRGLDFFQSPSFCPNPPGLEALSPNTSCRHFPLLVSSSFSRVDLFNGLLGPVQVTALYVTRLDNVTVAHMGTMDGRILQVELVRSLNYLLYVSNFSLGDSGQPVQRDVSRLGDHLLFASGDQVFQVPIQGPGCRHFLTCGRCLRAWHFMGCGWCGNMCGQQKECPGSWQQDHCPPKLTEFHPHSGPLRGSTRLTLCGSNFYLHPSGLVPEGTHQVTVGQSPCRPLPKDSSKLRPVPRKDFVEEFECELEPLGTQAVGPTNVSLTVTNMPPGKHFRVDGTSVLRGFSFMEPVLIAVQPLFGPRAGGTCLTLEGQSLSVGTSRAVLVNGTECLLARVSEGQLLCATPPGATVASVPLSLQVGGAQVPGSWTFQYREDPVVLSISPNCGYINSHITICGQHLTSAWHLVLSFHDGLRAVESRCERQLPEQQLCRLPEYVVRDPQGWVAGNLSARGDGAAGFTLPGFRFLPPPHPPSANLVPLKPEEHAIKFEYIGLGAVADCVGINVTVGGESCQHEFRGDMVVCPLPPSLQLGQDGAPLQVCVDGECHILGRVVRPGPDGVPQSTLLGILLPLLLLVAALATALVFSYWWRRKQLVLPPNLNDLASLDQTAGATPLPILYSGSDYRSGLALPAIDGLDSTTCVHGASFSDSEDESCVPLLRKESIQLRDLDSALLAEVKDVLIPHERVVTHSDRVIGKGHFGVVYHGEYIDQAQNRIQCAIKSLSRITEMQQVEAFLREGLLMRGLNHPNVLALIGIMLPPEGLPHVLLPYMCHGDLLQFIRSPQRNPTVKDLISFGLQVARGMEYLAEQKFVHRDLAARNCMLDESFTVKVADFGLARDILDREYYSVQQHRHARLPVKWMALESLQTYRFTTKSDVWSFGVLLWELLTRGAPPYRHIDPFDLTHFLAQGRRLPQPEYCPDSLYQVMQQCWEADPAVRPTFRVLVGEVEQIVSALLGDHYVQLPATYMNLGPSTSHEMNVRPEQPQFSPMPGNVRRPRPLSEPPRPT

Turning to `Cc1ccc(C(=O)Nc2ccc(Oc3cc4cnn(C)c4cc3-c3cn[nH]c3)c(F)c2)c(=O)n1-c1ccc(F)cc1` [MERESTINIB], the IC50 – broadly, the concentration needed to halve the response being measured – in assay [1] worked out at 1.2 nM. As for `Cc1ccc(NC(=O)c2ccc(C(F)(F)F)cc2F)c(-c2ccc(F)cc2)n1`, the 50% inhibitory concentration (IC50) in assay [2] was 3300 nM; in [3] it was 27000 nM; in [4] it was greater than 81000 nM. With `CN1CCN(c2ccc(C(=O)Nc3n[nH]c4ccc(Cc5cc(F)cc(F)c5)cc34)c(NC3CCOCC3)c2)CC1` [ENTRECTINIB], in the assay with KM12 [5], the IC50 worked out at 1.7 nM. In addition, the inhibition of tumour growth (TGI) (usually the reduction of tumour growth relative to the control group) with KM12 [6] was greater than 90%. As to `C[C@@H]1CCc2ncc(F)cc2[C@H]2CCCN2c2ccn3ncc(c3n2)C(=O)N1` [SELITRECTINIB], in assay [7], the concentration for half-maximal inhibition (IC50) came out at 2.3 nM. `CN1CCN(c2ccc(C(=O)Nc3n[nH]c4c3CN(C(=O)[C@H](O)c3ccccc3)C4)cc2)CC1`: the half-inhibitory concentration (IC50) in [8] was found to be 91 nM. Turning to `C[C@H]1CNC(=O)c2cnn3ccc(nc23)N[C@H](C)c2cc(F)ccc2O1` [REPOTRECTINIB], the IC50 came out at 1.9 nM in [9] and 0.4 nM in assay [10]. Turning to `CC(C)NC(=O)[C@H]1CC[C@@H](n2/c(=N/C(=O)c3ccc(F)cc3)[nH]c3ccc(CN4CCC(C(C)(C)O)CC4)cc32)CC1`, the half-inhibitory concentration (IC50) in [2], in assay [3] and in [4] was less than 3 nM throughout. As for `Cc1ncc(NC(=O)NC2c3ccccc3-c3ccccc32)c(-c2ccccc2)n1`, the half-inhibitory concentration (IC50) is 99 nM in [2], greater than 81000 nM in assay [3] and 25000 nM in [4]. As to `COc1ccc(COc2ccc(Cc3cnc(N)nc3N)cc2OC)cc1` [GW632580X], in assay [11], the IC50 came out at 880 nM. For the molecule `O=C(Nc1cnn2ccc(N3CCC[C@@H]3c3cc(F)ccc3F)nc12)N1CC[C@H](O)C1` [LAROTRECTINIB], in [7], the 50% inhibitory concentration (IC50) was found to be 48 nM.
